Measurements: patent US5229413A, “Compositions containing indole-2-carboxylate compounds for treatment of CNS disorders” (G. D. Searle & Co., priority 1992, dated 1993)

Legend:
[1] = biological target: T1, strychnineinsensitive glycine recognition site (NMDA receptor-ion channel complex) (Rattus norvegicus, UniProt P35439); test: Glycine binding assay, [3H]glycine, synaptic plasma membranes; conditions: 10 nM [3H]glycine, pH 7.4, rat forebrain SPM; read-out: Ki apparent, Gly
T1 construct: Synaptic plasma membranes (SPM) were prepared from rat forebrain; from tissue; host or cells: rat forebrain synaptic plasma membranes
Protocol: Synaptic plasma membranes (SPM) were prepared from rat forebrain and stored as previously described [J. B. Monahan and J. Michel, J. Neurochem, 48, 1699-1708 (1987)]. Frozen membranes were thawed and diluted 1:20 with 0.04% triton X-100 in 50 mM tris/acetate (pH 7.4). Following incubation at 37° C. for 30 min., the SPM were collected by centrifugation at 95,000 X g for 15 min. The pellet was resuspended in 50 mM tris/acetate (pH 7.4, triton-free) and hand-homogenized five times. The membranes were again centrifuged as above. The pellet was washed two additional times with 50 mM tris/acetate (without homogenization) and centrifuged. The final pellet was resuspended with homogenization in 50 mM tris/acetate.
In the general receptor binding assay procedure, 10 nM [^3 H]glycine was added to the appropriate concentration of the test compounds and the assay initiated by the addition of 0.2-0.4 mg of ice cold SPM. The assay, which was done in 1.5 ml centrifuge tubes, was adjusted to a total volume of 1.0 ml with all additions being made in 50 mM tris/ acetate, pH 7.4 at 4° C. After a 10 minute incubation at 2° C., the samples were centrifuged for 15 min. at 12,000 g (4° C.) in a Beckman Microfuge 12. The supernatant was aspirated and the tube tip containing the pelleted membranes cut off and agitated in 0.5 ml of Beckman BTS-450 tissue solubilizer for a minimum of 6 hours at room temperature. Beckman MP scintillation cocktail (5 ml) containing 7 ml/liter acetic acid was then added and the samples counted on a Beckman LS 5800 liquid scintillation counter with automatic corrections for quenching and counting efficiency. […] The binding of [^3 H]glycine to the SPM was analyzed using Scatchard and Hill transformations and the Ki for other compounds was determined using logit-log analysis. Calculations and regression analysis were performed using templates developed for Lotus 123 as previously described [Pullan et al, Id.].

[2] = biological target: T2, NMDA receptor (rat brain receptor expressed in Xenopus oocytes) (Rattus norvegicus, UniProt P35439); test: Xenopus oocytes injected with rat cortex mRNA, blocking of glycine effects (voltage clamp); assay type: cell-based; conditions: 100 μM NMDA
T2 construct: PolyA+ RNA (mRNA) was extracted from adult male rat cortex; expressed in transfected cells; host or cells: Xenopus laevis oocytes microinjected with rat cortex poly(A)+ RNA
Protocol: PolyA+ RNA (mRNA) was extracted from adult male rat cortex using the refined guanidinium thiocyanate method developed by Han et al [J. H. Han et al., Biochemistry, 26, 1617-1625 (1987)] and the oligo (dT) cellulose chromatography procedure of Adiv and Leder [H. Aviv et al., Proc. Nat. Acad. Sci., 69, 1408-1412 (1972)]. Aliquots of mRNA (1.0 mg/ml water) were stored at -20° C.
Gravid adult female Xenopus laevis (Xenopus One, Ann Arbor, Mich. or NASCO, Ft. Atkinson, Wis.) were anaesthetized with 0.2% (w/v) Tricaine (3-amino benzoic acid ethyl ester; Sigma) and subjected to partial ovarectomy. Excised oocytes were then prepared and microinjected [N. W. Kleckner et al, Science 241 835-837 (1988)]. Oocytes were treated for one hour in Barth's solution (88.0 mM NaCl, 1.0 mM KCl, 2.4 mM NaHCO3, 0.41 mM CaCl2, 0.82 mM MgSO4, 10.0 μg/ml penicillin, 100.0 μg/ml streptomycin, 10.0 mM HEPES, pH 7.5) containing 1.5 mg/ml Neutral Protease (Beohringer Mannheim Biochemicals, Grade II). Oocytes were then placed in Barth's solution containing 100.0 mM sucrose and manually defolliculated with fine forceps. Defolliculated oocytes were then microinjected with approximately 50 ng of mRNA in Barth's solution at 16°-18° C.
Oocytes were assayed 2-8 days later for rat brain receptor expression via single electrode voltage. clamp (Axoclamp 2A, Axon Instruments) in a manner similar to that previously described [Kleckner et al, Id.]. […] Drugs were added to the perfusate and inward currents induced by agonist compounds were measured at peak steady state response. […] Antagonist compounds were perfused for a minimum of 3.0 minutes prior to subsequent agonist co-application. Data are expressed as percent maximal response (mean±S.E.M.). Half-maximal responses (EC50 's) and slopes for dose response data were determined from the least squares fit to the logistic regression equation.

Ki [1]: 1300 nM | IC50 ([2]; IC50, 0.1 μM Gly, 0.1 μM glycine): 770 ± 120 nM | IC50 ([2]; IC50, 1.0 μM Gly, 1.0 μM glycine): 3200 ± 1100 nM | IC50 ([2]; IC50, 10 μM Gly, 10 μM glycine): 6100 ± 3200 nM
SMILES: O=C(O)Cc1c(C(=O)O)[nH]c2cc(Cl)ccc12 [Compound No. 6, 2-carboxy-6-chloro-3-indoleacetic acid]
